Measured values as given in US20230146675A1, “PYRIMIDO[5,4-d]PYRIMIDINE DERIVATIVES AS ENT INHIBITORS FOR THE TREATMENT OF CANCERS, AND COMBINATION THEREOF WITH ADENOSINE RECEPTOR ANTAGONISTS” (ITEOS BELGIUM SA, priority 2020, published 2023).

How the values were obtained:
Type in all cases: biochemical
[1] = target: T1, Human phosphodiesterase-1B (Homo sapiens, UniProt Q01064); experiment: PDE1B (h) assay
T1 construct: host or cells: Sf9 cells
Protocol: Method. • Human phosphodiesterase-1B quantified by measuring the formation of 5′GMP from cGMP using a human recombinant enzyme expressed in Sf9 cells
The test compound (compound 72), reference compound or water (control) were added to a buffer containing 40 mM Tris/HCl (pH 7.4), 8 mM MgCl2 0.21% BSA, 0.5 μg/ml calmoduline and 0.5 mM CaCl2), 1.125 μM cGMP and 0.027 μCi [3H]cGMP. Thereafter, the reaction was initiated by addition of the enzyme (about 0.2 U) and the mixture was incubated for 20 min at 22° C. For basal control measurements, the enzyme was omitted from the reaction mixture. Following incubation SPA beads were added. After 30 min at 22° C. under shaking, the amount of [3H]5′GMP was quantified with a scintillation counter (MicroBeta, Perkin Elmer). The results were expressed as a percent inhibition of the control enzyme activity. The standard inhibitory reference compound was Nitrendipine, which was tested in each experiment at several concentrations to obtain an inhibition curve from which its IC50 value was calculated. • Human phosphodiesterase-5 quantified by measuring the formation of 5′GMP from cGMP using an enzyme isolated from human platelets at Eurofins-Cerep.

[2] = target: T2, Human phosphodiesterase-4A1A (Homo sapiens, UniProt P27815); experiment: PDE4A1A (h) assay
T2 construct: host or cells: Sf9 cells
Protocol: The test compound (compound 72), reference compound or water (control) were added to a buffer containing 40 mM Tris/HCl (pH 7.4) and 8 mM MgCl2, 450 nM cAMP and 0.25 μCi [3H]cAMP. Thereafter, the reaction was initiated by addition of the enzyme (about 3 U) and the mixture was incubated for 20 min at 22° C. For basal control measurements, the enzyme was omitted from the reaction mixture. Following incubation SPA beads were added. After 30 min at 22° C. under shaking, the amount of [3H]5′AMP was quantified with a scintillation counter (MicroBeta, Perkin Elmer). The results were expressed as a percent inhibition of the control enzyme activity.
The test compound (compound 72), reference compound or water (control) were added to a buffer containing 40 mM Tris/HCl (pH 7.4) and 8 mM MgCl2, 450 nM cAMP and 0.25 μCi [3H]cAMP. […] After 30 min at 22° C. under shaking, the amount of [3H]5′AMP was quantified with a scintillation counter (MicroBeta, Perkin Elmer). The results were expressed as a percent inhibition of the control enzyme activity. The standard inhibitory reference compound was Ro 20-1724, which was tested in each experiment at several concentrations to obtain an inhibition curve from which its IC50 value was calculated. • Human phosphodiesterase-4B1 quantified by measuring the formation of 5′AMP from cAMP using a human recombinant enzyme expressed in Sf9 cells.

[3] = target: T3, Human phosphodiesterase-4D2 (Homo sapiens, UniProt Q08499); experiment: PDE4D2 (h) assay
T3 construct: host or cells: Sf9 cells
Protocol: The test compound (compound 72), reference compound or water (control) were added to a buffer containing 40 mM Tris/HCl (pH 7.4), 8 mM MgCl2 and 1.7 mM EGTA/NaOH, 450 nM cAMP and 0.25 μCi [3H]cAMP. Thereafter, the reaction was initiated by addition of the enzyme (about 1.2 U) and the mixture was incubated for 20 min at 22° C. For basal control measurements, the enzyme was omitted from the reaction mixture. Following incubation SPA beads were added. After 30 min at 22° C. under shaking, the amount of [3H]5′AMP was quantified with a scintillation counter (MicroBeta, Perkin Elmer). The results were expressed as a percent inhibition of the control enzyme activity. The standard inhibitory reference compound was Ro 20-1724, which was tested in each experiment at several concentrations to obtain an inhibition curve from which its IC50 value was calculated. • Human phosphodiesterase-4D2 quantified by measuring the formation of 5′AMP from cAMP using a human recombinant enzyme expressed in Sf9 cells.
(§1) The test compound (compound 72), reference compound or water (control) were added to a buffer containing 40 mM Tris/HCl (pH 7.4) and 8 mM MgCl2, 450 nM cAMP and 0.0125 μCi [3H]cAMP. […] After 30 min at 22° C. under shaking, the amount of [3H]5′AMP was quantified with a scintillation counter (Topcount, Packard). The results were expressed as a percent inhibition of the control enzyme activity. […]

[4] = target: T4, Human phosphodiesterase-8A1 (Homo sapiens, UniProt O60658); experiment: PDE8A1 (h) assay
T4 construct: host or cells: Sf9 cells
Protocol: The test compound (compound 72), reference compound or water (control) were added to a buffer containing 40 mM Tris/HCl (pH 7.4) and 8 mM MgCl2, 63 nM cAMP and 0.035 μCi [3H]cAMP. Thereafter, the reaction was initiated by addition of the enzyme (about 0.6 U) and the mixture was incubated for 20 min at 22° C. For basal control measurements, the enzyme was omitted from the reaction mixture. Following incubation SPA beads were added. After 30 min at 22° C. under shaking, the amount of [3H]5′AMP was quantified with a scintillation counter (MicroBeta, Perkin Elmer). The results were expressed as a percent inhibition of the control enzyme activity. The standard inhibitory reference compound was BRL50481, which was tested in each experiment at several concentrations to obtain an inhibition curve from which its IC50 value was calculated. • Human phosphodiesterase-8A1 quantified by measuring the formation of 5′AMP from cAMP using a human recombinant enzyme expressed in Sf9 cells
as §1, with “180” for “450”, “0.1” for “0.0125”, “(MicroBeta, Perkin Elmer).” for “(Topcount, Packard).”

T3 sequence (Q08499 303-809 limits assumed): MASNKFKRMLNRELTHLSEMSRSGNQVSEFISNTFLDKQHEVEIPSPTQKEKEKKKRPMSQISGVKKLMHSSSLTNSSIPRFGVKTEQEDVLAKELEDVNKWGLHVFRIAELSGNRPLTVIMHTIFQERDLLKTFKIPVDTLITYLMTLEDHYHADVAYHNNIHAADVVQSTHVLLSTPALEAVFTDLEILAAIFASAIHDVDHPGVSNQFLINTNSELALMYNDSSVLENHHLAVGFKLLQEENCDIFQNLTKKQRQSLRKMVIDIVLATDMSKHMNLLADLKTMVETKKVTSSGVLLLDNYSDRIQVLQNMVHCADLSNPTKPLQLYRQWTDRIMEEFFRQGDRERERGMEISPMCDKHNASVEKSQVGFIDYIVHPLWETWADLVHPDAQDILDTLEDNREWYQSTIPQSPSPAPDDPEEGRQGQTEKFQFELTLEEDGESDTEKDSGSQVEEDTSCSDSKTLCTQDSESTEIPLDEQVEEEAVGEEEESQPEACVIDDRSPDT
T4 sequence (O60658 whole entry): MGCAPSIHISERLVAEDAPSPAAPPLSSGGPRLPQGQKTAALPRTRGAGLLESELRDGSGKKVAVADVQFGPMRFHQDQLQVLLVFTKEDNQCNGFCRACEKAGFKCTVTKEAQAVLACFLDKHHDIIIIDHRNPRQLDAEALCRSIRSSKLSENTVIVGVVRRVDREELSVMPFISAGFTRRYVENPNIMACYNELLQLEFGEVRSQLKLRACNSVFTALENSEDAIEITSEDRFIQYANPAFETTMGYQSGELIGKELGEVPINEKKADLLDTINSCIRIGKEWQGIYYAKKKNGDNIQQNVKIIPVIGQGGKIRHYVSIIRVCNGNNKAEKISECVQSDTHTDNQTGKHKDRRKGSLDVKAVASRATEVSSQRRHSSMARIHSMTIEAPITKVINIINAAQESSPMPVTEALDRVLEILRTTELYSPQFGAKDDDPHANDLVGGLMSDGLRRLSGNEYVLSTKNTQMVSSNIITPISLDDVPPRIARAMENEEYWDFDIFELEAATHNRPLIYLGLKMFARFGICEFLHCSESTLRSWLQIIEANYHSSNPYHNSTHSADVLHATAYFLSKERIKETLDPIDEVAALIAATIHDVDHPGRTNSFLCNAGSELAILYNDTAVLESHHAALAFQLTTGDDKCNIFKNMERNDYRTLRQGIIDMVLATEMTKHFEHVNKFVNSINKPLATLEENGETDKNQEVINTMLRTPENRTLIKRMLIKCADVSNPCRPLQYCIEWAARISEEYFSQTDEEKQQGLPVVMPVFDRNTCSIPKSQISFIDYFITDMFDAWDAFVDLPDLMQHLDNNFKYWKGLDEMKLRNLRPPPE
T2 sequence (P27815 1-647 isoform P27815-4): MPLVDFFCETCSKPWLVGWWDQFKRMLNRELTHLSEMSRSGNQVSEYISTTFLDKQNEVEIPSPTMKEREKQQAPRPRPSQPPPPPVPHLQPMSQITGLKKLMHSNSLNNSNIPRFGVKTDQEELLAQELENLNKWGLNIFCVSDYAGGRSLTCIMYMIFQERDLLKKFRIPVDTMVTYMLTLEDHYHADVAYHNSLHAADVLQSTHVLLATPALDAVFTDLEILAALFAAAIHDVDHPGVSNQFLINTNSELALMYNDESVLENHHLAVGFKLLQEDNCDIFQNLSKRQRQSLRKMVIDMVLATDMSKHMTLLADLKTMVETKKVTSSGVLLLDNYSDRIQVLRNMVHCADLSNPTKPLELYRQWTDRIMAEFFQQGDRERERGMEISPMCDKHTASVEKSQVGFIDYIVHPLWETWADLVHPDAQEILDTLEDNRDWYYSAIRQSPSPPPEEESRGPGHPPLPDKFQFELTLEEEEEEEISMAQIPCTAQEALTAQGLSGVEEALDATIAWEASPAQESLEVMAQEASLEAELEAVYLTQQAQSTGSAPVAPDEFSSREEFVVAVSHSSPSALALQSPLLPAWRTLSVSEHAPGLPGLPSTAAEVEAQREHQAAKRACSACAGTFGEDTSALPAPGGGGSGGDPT

**Q.** How did the IC50 [1] turn out when `COCCN(CCOC)c1nc(N2CCN(C)C(=O)C2)c2nc(N(CCOC)CCOC)nc(N3CCC(OC)CC3)c2n1` [Compound 72, 4-(2,6-bis(bis(2-methoxyethyl)amino)-8-(4-methoxypiperidin-1-yl)pyrimido[5,4-d]pyrimidin-4-yl)-1-methylpiperazin-2-one] was run?
**A.** > 10 µM

**Q.** And the IC50 [2]?
**A.** > 10 µM

**Q.** What about the IC50 [3] of the same compound?
**A.** 1 to 10 µM

**Q.** And the IC50 [4]?
**A.** > 10 µM
